Type in all cases: cell-based, human
The test system of one series is UCCs. The series is described as follows: Western blot of acetylated α-tubulin and histones H3/H4. Conditions: 48 h; 19i 1 or 2 μM, SAHA 2.5 μM. On the procedure: Total protein extraction, purification of histones, and Western blot analysis were performed as previously described. Briefly, cells were incubated for 30 min on ice in RIPA-buffer (150 mM NaCl, 1% Triton X-100, 0.5% desoxycholate, 1% Nonidet P-40, 0.1% SDS, 1 mM EDTA, 50 mM TRIS (pH 7.6)) containing 10 μl/ml protease inhibitor cocktail (#P-8340, Sigma Aldrich, St. Louis, MO). Histones were extracted for detection of histone H3 and H4 acetylation by a modified published protocol employing sulfuric acid extraction and TCA-precipitation. Concentrations of total protein and histones were determined by BCA protein assay (Thermo Fisher Scientific, Carlsbad, CA). Subsequently, total cell proteins (15 μg) or extracted histones (2 μg) were separated by SDS-PAGE (total proteins 10–12% gels, histones 15% gels), transferred to PVDF membranes (Merck Millipore, Berlin, Germany), and were incubated with primary antibodies (at RT for 1 h or 4 °C overnight, see Additional file 3: Table S2) following blocking with 5% non-fat milk or BSA (bovine serum albumin) in TBST (150 mM NaCl, 10 mM TRIS, pH 7.4 and 0.1% Tween-20). For signal detection, membranes were incubated with a suitable horseradish peroxidase-conjugated secondary antibody (see Additional file 2: Table S1) at RT for 1 h and signals were visualized by SuperSignal™ West Femto (Thermo Fisher Scientific, Carlsbad, CA) and WesternBright Quantum kit (Biozym, Hessisch Oldendorf, Germany).

Series [1] concerns HBLAK. The series is described as follows: MTT viability assay (CC50). Conditions: 72 h of incubation. On the procedure:
(§1) Further experiments were performed in VM-CUB1 and UM-UC-3 cells overexpressing HDAC4 (see below). Standard UCCs were obtained from the DSMZ (Braunschweig, Germany) and Dr. H.B. Grossmann HB (Houston, USA). For comparison, we investigated the spontaneously immortalized normal human bladder cell line HBLAK (provided by CELLnTEC, Bern, Switzerland) and the immortalized human embryonic kidney cell line HEK-293 (provided by Dr. V. Kolb-Bachofen, Duesseldorf, Germany). Cells were cultured and treated in DMEM GlutaMAX-I (Gibco, Darmstadt, Germany; UCCs and HEK-293) supplemented with 10% fetal calf serum (Biochrom, Berlin, Germany), except for HBLAK cultured in CnT-Prime Epithelial Culture Medium (CELLnTEC, Bern, Switzerland; HBLAK), at 37 °C and 5% CO2. STR (short tandem repeat) profiling via DNA fingerprint analysis was performed for all cell lines. Primary cultures of normal urothelial cells (UP) were established from healthy ureters removed during tumor nephrectomy and cultured as described. These cultures were used with informed consent of the patients and approval by the Ethics Committee of the Medical Faculty of the Heinrich-Heine-University, study number 1788. All inhibitors were dissolved in DMSO and stored as 10 mM stocks. […] The pan-HDACi inhibitor SAHA previously studied in detail was used for comparison. Solvent control cells were treated with equal amounts of DMSO.
(§2) For the determination of cellular mean cytotoxic concentration (CC50), UCCs, non-malignant control cells, and HDAC4-overexpressing clones were seeded in a 96-well format and treated once with a range of defined concentrations of the HDAC inhibitors. After 72 h, viability was quantified by NAD(P)H-dependent 3-(4,5-dimethylthiazol-2-yl)-2,5-diphenyltetrazolium bromide dye reduction assay (MTT, Sigma Aldrich, St. Louis, MO). CC50 values were estimated from three independent experiments by non-linear regression analysis (four-parameter logistic equation) using Prism 4.0 (Graph Pad) or Origin 8.0 (Origin Lab, Northhampton, GB). For time-dependent proliferation experiments, viability of untreated or inhibitor-treated cells was measured after 24, 48, and 72 h.
In general terms: Formazan colour is commonly taken as a measure of viable cells.

Series [2] has as its system VM-CUB1. Put plainly: MTT viability assay (CC50). On the procedure:
as §1, §2

The test system of series [3] is UM-UC-3. The series is described as follows: MTT viability assay (CC50). Conditions: UM-UC-3, MTT. The method, then:
as §1, §2

Series [4] relates to 639-V. Put plainly: MTT viability assay (CC50). On the procedure:
as §1, §2

In series [5] the test system is UC cell lines (VM-CUB1, UM-UC-3, 639-V). The series is described as follows: MTT viability assay, UC cell lines taken together. Conditions: MTT and HCA live/dead assays. The method, then: Further experiments were performed in VM-CUB1 and UM-UC-3 cells overexpressing HDAC4 (see below). Standard UCCs were obtained from the DSMZ (Braunschweig, Germany) and Dr. H.B. Grossmann HB (Houston, USA). For comparison, we investigated the spontaneously immortalized normal human bladder cell line HBLAK (provided by CELLnTEC, Bern, Switzerland) and the immortalized human embryonic kidney cell line HEK-293 (provided by Dr. V. Kolb-Bachofen, Duesseldorf, Germany). Cells were cultured and treated in DMEM GlutaMAX-I (Gibco, Darmstadt, Germany; UCCs and HEK-293) supplemented with 10% fetal calf serum (Biochrom, Berlin, Germany), except for HBLAK cultured in CnT-Prime Epithelial Culture Medium (CELLnTEC, Bern, Switzerland; HBLAK), at 37 °C and 5% CO2. […]
For the determination of cellular mean cytotoxic concentration (CC50), UCCs, non-malignant control cells, and HDAC4-overexpressing clones were seeded in a 96-well format and treated once with a range of defined concentrations of the HDAC inhibitors. After 72 h, viability was quantified by NAD(P)H-dependent 3-(4,5-dimethylthiazol-2-yl)-2,5-diphenyltetrazolium bromide dye reduction assay (MTT, Sigma Aldrich, St. Louis, MO). […] For time-dependent proliferation experiments, viability of untreated or inhibitor-treated cells was measured after 24, 48, and 72 h.

In series [6] the test system is HBLAK. Put plainly: High-content analysis-based fluorescent live/dead assay. Particulars: HCA, 72 h. The method, then:
(§3) Live and dead cells were assayed by high-content analysis (HCA). […] After 72 h of treatment, cells were stained with a mixture of Hoechst 33342 (Sigma Aldrich, St. Louis, MO), calcein AM (Merck Millipore, Germany), and propidium iodide (Santa Cruz Biotechnology, Heidelberg) for cell nuclei, live and dead cells. The staining solution was replaced by PBS after 20 min. Images were acquired using ArrayScan XTI Live High Content Platform (Thermo Fisher Scientific Inc., USA) using excitation filters of 386, 485, and 560 nm for Hoechst 33342, calcein AM, and propidium iodide, respectively. The results were analyzed using HCS Studio Cellomics Scan (Thermo Fisher Scientific Inc., USA).

Series [7] deals with VM-CUB1. Described as above. Conditions: VMCub1, HCA, 72 h. The method, then: as §3
The subject of series [8] is UM-UC-3. The description is as above. Particulars: UM-UC-3, HCA, 72 h. The method, then:
as §3

The test system of series [9] is 639-V. The description is as above. Particulars: HCA, 72 h. On the procedure: as §3

For `O=C(CCCCCCC(=O)Nc1ccccc1)NO` [SAHA, suberoylanilide hydroxamic acid, reference compound], the “acetylation of α-tubulin” value in the series with UCCs was “strongly induced”.
For orientation: CC50 means the concentration that lowers cell viability or growth by half. Low readings indicate harm at low concentration, high ones better tolerance by the cells. Take `O=C(NCC1(c2nc(-c3ccccc3)cs2)CCOCC1)c1cccc(-c2noc(C(F)(F)F)n2)c1` [TMP269]: the cytotoxic concentration (CC50) in the series on HBLAK [1] worked out at 48.7 µM; in the series with VM-CUB1 [2] (VM-CUB1, MTT, 72 h of incubation) it was 45.9 µM; in the series with VM-CUB1 [2] (VMCub1, MTT, 24 h) it was 115 µM; in the series on VM-CUB1 [2] (VMCub1, MTT, 48 h) it was 115 µM; with UM-UC-3 [3] (24 h) it was 110 µM; in the series on UM-UC-3 [3] (48 h) it was 73.8 µM. The CC50 in the series with UM-UC-3 [3] (72 h of incubation) turned out to be 32.3 µM; in the series on 639-V [4] (24 h), 96.1 µM; with 639-V [4] (48 h), 65.8 µM; in the series on 639-V [4] (72 h of incubation), 39.4 µM; in the series with HBLAK [6], 10.6 µM; with VM-CUB1 [7], 20.1 µM. Moreover, the CC50 is 14.6 µM in the series with UM-UC-3 [8] and 16.5 µM in the series with 639-V [9]. Further, the “concentrations effective on / impeding proliferation of UC cell lines” value in series [5] is greater than 10 µM.

These data come from publication PMC6069857, “Effects of novel HDAC inhibitors on urothelial carcinoma cells” (Clinical Epigenetics, 2018).
